Data published in patent publication US20050144659A1, “Animals and cells containing a mutated alpha2delta gene” (priority 2003, published 2005).

What was measured:
α2/δ2 = α2/δ2 (Homo sapiens, UniProt Q9NY47); conditions: background statement; cited from earlier work
[1] = system: brain membranes from the R217A mutant mouse; test: 3H gabapentin binding to mouse brain membranes; conditions: R217A mutant mouse in comparison to wildtype mice; tracer 3H gabapentin; FIG. 3
Experimental: Membranes were prepared from whole mouse brains. […] Total binding was determined in the absence of competitor. Non-specific binding was determined in the presence of 10 μM unlabeled pregabalin.

[2] = system: R217A WT, HET and KI mice and parent strains; test: Vogel water-lick conflict; assay type: in vivo, mouse; conditions: for anxiolytic-like effect: R217A knockins
From the text: Albino or C57BL/6J-Tyr were also included in the experiments for comparison purposes. Male C57BL/6J (Jackson Laboratories), and 129S6/SvEV (Taconic Farms) mice were received at 8 weeks old in quantities sufficient for each study to be completed in one experiment. Parent strains were housed one week prior to testing.
On the side of each chamber (1.5 in. above the floor) a module optical lickometer was mounted. The lickometer was used to measure licking from a drink tube attached to a water bottle mounted on the exterior of the chamber. A photo beam was piped via glass rods across a gap at the end of the drink tube. The subject's tongue breaks the beam when it drinks from the tube and each lick was automatically recorded. […] The reduced chamber space limited the animal's activity and directed behavior towards the drink tube during a 10-minute session. The front and back of the test chamber was made of clear Plexiglas. The front door was covered to reduce distractions from inside the test room. The back of the test chamber faced a wall, away from the flow of traffic in the testing room, and remained uncovered to provide the opportunity for observations. Shock was delivered between the grid floor and the drink tube using a (Coulbourn) programmable universal shocker for a duration of one second, but terminated immediately when contact between the animal and drink tube was broken.
PROCEDURE: On day one, after 24 hours of water deprivation, experimental subjects were placed in the test chambers and allowed to drink unpunished for a 10-minute training session. Mice were required to complete a 100-150 lick criteria during the training session. […] Immediately after the day one session mice were returned to their home cages and deprived of water and food for an additional 24 hours. On test day two, mice were dosed by intraperitoneal (IP) injection with vehicle or test compound. After a 60 or 120-minute absorption period mice were placed into the test chambers for a 10-minute test session. During the test, shock was delivered on a fixed ratio (FR) 10 schedule. Therefore, after every 10th lick the subject received a mild shock. […] A low number of shock episodes accepted reflects anxiety-related behavior. Standard anxiolytic drugs produce effects that allow mice to overcome the behavioral inhibition and drink despite the shock. […] All data were analyzed using a one-way ANOVA/Dunn's Method.
DRUGS: Pregabalin was dissolved in physiological saline for all experiments. The positive control diazepam was suspended in 2% cremophor in physiological saline.
C57BL/6J mice were tested at 0.4 mA, C57BL/6J-Tyr mice were tested at 0.1 mA and 129S6/SvEV mice were tested at 0.6 mA. […]

[3] = system: R217A mutant lines and background mouse strains; test: Maximal electroshock procedure (MES); assay type: in vivo; conditions: for responsiveness to anticonvulsant effects: all background strains, mutant, heterozygous mutant and wildtype (all lines)
Experimental: Anticonvulsant effectiveness was determined by using an electroconvulsive seizure model as described elsewhere [White et al., 1995]. Mice had free access to food and water and were housed in a temperature and light-controlled environment (12 h on/12 h off) prior to drug administration. Electroshock in mice was delivered using corneal electrodes with varied electroshock intensity. Current was delivered (60 Hz sinusoidal current, 11 to 17 mA baseline to peak vs. 50 mA for 0.2 s) using a constant-current stimulator (Wahlquist Instruments, Salt Lake City, Utah). The intensities of current necessary to produce tonic extensor seizures for each mouse strain and mutant lines in all of the mice were determined. These currents were then used for further testing of mice with pregabalin. All dose-response testing was conducted at the previously determined time of peak drug effect. Groups of 10 mice each were give various intraperitoneal doses of pregabalin dissolved in 0.9% saline, diazepam (veh) or phenyloin and given in a volume of 10 ml/kg of body weight. ED50 values (calculated dose required to inhibit the hindlimb tonic-extensor component of the maximal electroshock seizure in 50% of the animals tested) were determined by probit analysis [Litchfield, Wilcoxon], and used to compare relative potency between compounds. At least four groups of mice and each animal was employed once. The animals, pretreated with different doses of the tested drugs, were challenged with one electroshock at previously determined times of peak drug effect (pregabalin: 120 min; diazepam: 60 min; phenyloin; 60 min).
Anticonvulsant effects of pregabalin were reduced in −/− mice as compared to the +/+mice.

[4] = system: α2/δ1 R217A wild type, heterozygous, and homozygous mice; test: Formalin foot-pad procedure (formalin-induced hyperalgesia); assay type: in vivo, mouse; conditions: mice with arg 217 changed to alanine versus heterozygous and wildtype; PO, 120 minutes prior to testing; FIG. 4
Experimental: Male α2/δ1 R217A wild type, heterozygous, and homozygous mice, weighing 1940 grams, were used for testing. Animals were maintained on a 12 hour light/dark cycle with food and water available ad libitum. Animals were food deprived overnight the day before testing. On test day, animals were acclimated to the observation chambers for approximately 60 min. The observation chambers were eight inch square boxes consisting of solid, acrylic plastic mirrors for the floor and 3 walls. The fourth wall was clear acrylic that allowed for observation. Animals were dosed PO with either vehicle or pregabalin, 120 minutes prior to testing at a dose volume 10 mL/kg. At test time, animals received a 25 μL injection of a 5% formalin solution in water in the plantar surface of the left hind foot. […] These behaviors were timed using a hand-held stopwatch and recorded at 5 min intervals. Data was analyzed by the two distinct phases of responding. Early phase responding included Minutes 0-10, and late phase responding included Minutes 1145. The total time spent licking by drug-treated animals in each phase was compared to the total time spent licking by vehicle-treated animals.
FIG. 4 depicts formalin-induced hyperalgesia in R217A mutant homozygous mice in comparison to that of heterozygous and wildtype mice.

[5] = system: α2/δ1 R217A wild type and homozygous mice; test: Tail Suspension Test (TST); assay type: in vivo, mouse; conditions: R217A homozygous mutant versus wildtype mice; dosed 120 minutes prior to testing; FIG. 5
Experimental: Male α2/δ1 R217A wild type and homozygous mice, weighing 22-35 grams, were used for testing. Animals were maintained on a 12 hour light/dark cycle with food and water available ad libitum. Animals were food deprived overnight the day before testing. On test day, animals were placed by groups of 8 into holding cages to acclimate for sixty minutes prior to dosing. Vehicle or pregabalin was administered 120 minutes prior to testing at a dose volume of 10 mL/kg. At test time, a piece of transparent tape was placed around the distal portion of the tail. The tape was then attached to a hook connected to an electro-mechanical apparatus that recorded the amount of time a mouse moved and the force used during movement. The hook was located at the top of a 24×18 cm testing chamber. Animals were completely suspended in air approximately 5 cm off the floor of the chamber for six minutes. Mean time of struggling and force of movement were then calculated for each group of eight.
Animals are placed by groups of eight into holding cages to acclimate for thirty to sixty minutes prior to dosing. Treatments are generally administered 60 to 120 minutes prior to testing, although this also varies with specific compounds. At test time, a piece of scotch tape is placed around the distal portion of the tail. […]

[6] = system: R217A knock-in and wild-type mice; test: Chronic constriction injury (CCI)-induced static allodynia, von Frey hairs; assay type: in vivo, mouse; conditions: sub cutaneous 30-100 mg/kg, FIG. 8
From the text: Animals were placed in an anaesthetic chamber and anaesthetised with a 2% isofluorane O2 mixture. The right hind thigh is shaved and swabbed with 1% iodine. Animals were then transferred to a homeothermic blanket for the duration of the procedure and anaesthesia maintained during surgery via a nose cone. The skin was cut along the line of the thigh bone. The common sciatic nerve was exposed at the middle of the thigh by blunt dissection through biceps femoris. Proximal to the sciatic trifurcation, about 5 mm of nerve was freed by inserting forceps under the nerve and the nerve gently lifted out of the thigh. The forceps were gently opened and closed several times to aid clearance of the fascia from the nerve. […]
Animals were habituated to wire test cages prior to the assessment of allodynia. Static allodynia was evaluated by application of von Frey hairs (Stoelting, Wood Dale, Ill., U.S.A.) in ascending order of force ([…], 0.4, 0.6, 1.0, 1.5 and 2.0 g) to the plantar surface of hind paws. […] The lowest amount of force required to elicit a response was recorded as paw withdrawal threshold (PWT) in grams. […]
Baseline (BL) paw withdrawal thresholds (PWT) to von Frey hairs were assessed. Following drug administration PWT were re-assessed for up to 4 h. […]

α2/δ2, sequence (Q9NY47 19-1150): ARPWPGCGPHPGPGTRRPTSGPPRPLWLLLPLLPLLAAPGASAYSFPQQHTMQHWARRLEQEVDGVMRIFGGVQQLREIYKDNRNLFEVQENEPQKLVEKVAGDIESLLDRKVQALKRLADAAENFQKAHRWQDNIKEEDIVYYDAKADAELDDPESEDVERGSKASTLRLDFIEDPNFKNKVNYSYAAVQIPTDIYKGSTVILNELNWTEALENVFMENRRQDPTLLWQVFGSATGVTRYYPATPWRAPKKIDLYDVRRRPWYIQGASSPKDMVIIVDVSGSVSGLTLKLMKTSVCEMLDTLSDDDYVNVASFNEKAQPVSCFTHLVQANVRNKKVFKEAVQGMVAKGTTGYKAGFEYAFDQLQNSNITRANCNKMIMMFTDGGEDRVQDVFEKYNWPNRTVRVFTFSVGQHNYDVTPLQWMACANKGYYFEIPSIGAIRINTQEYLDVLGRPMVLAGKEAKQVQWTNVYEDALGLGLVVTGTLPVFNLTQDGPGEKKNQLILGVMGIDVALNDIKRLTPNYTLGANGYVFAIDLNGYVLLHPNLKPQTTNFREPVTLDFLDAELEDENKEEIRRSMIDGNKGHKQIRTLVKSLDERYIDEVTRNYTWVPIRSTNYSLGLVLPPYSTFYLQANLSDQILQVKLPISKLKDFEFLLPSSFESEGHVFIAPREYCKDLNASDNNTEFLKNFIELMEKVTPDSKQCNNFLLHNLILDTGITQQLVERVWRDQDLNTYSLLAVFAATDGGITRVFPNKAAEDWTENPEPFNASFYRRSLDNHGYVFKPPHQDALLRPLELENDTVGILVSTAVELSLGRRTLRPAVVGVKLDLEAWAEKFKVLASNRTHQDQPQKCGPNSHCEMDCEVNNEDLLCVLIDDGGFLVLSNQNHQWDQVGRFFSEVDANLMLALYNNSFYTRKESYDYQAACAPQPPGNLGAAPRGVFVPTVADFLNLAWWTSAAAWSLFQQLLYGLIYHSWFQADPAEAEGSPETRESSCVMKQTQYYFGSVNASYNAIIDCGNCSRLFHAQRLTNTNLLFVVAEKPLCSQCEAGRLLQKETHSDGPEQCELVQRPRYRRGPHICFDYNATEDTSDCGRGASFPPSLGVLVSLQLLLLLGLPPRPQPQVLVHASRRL
α2/δ2, sequence (Q9NY47 1002-1150 partner limits assumed): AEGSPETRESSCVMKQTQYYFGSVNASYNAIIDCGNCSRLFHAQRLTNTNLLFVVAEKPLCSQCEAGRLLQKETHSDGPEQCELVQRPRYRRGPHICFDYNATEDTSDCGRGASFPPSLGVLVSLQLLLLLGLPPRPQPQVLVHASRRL

SMILES: NCC1(CC(=O)O)CCCCC1 [gabapentin, 1-(aminomethyl)cyclohexaneacetic acid]
- binding affinity (α2/δ2): high affinity
- gabapentin binding to brain membranes [1]: reduced, or greatly abolished

SMILES: CN1C(=O)CN=C(c2ccccc2)c2cc(Cl)ccc21 [diazepam]
- anxiolytic-like effect [2]: Diazepam (+control) failed to produce an anxiolytic-like effect in R217A knockins. Data suggests 129S6-parent strain's genotype may be responsible for pharmacological profile of diazepam
- responsiveness to anticonvulsant effects ([3]; FIG. 9): fully responsive

SMILES: O=C1NC(=O)C(c2ccccc2)(c2ccccc2)N1 [phenyloin]
- responsiveness to anticonvulsant effects ([3]; FIG. 9): fully responsive

SMILES: CC(C)C[C@H](CN)CC(=O)O [pregabalin]
- efficacy in formalin-induced hyperalgesia (licking or biting of injected foot) [4]: reduced efficacy
- sedative and/or anxiolytic effect in TST [5]: exerts its sedative and/or anxiolytic effect in TST through the α2/δ1 polypeptide
- effect on CCI-induced punctate allodynia (paw withdrawal threshold) ([6]; knock-in mice): no effect
- blockade of CCI-induced punctate allodynia (paw withdrawal threshold) ([6]; wild type mice): significant blockade
- increase @ 100 (punished responding) ([2]; Knockins, shock 0.7 mA, dose 100 (mg/kg IP)): non-significant
- anxiolytic-like effect [2]: Pregabalin did not produce a significant anxiolytic-like effect in R217A knockins, and no evidence was obtained relating phenotype to particular parent strain
- increase in punished licking ([2]; knock-in mice homozygous for R217A, compared to wild-type, heterozygous or back-ground strains): does not produce a statistically significant increase
- potency in protecting against seizures ([3]; mutant mice versus wild-type, heterozygous or back-ground strains): less potent
- anticonvulsant effects ([3]; −/− mice as compared to +/+ mice, FIG. 9): reduced
- sensitivity to effects in MES ([3]; −/− mice versus +/+ mice, FIG. 9): less sensitive
